Data reported in patent US20100240645A1, “COMBINATION OF CHECKPONIT KINASE (CHK) AND TELANGIECTASIA MUTATED (ATM) INHIBITORS FOR THE TREATMENT OF CANCER” (ASTRAZENECA AB, priority 2007, published 2010).
pIC50: −log10 of the molar value. Where two headings read alike, the source gives them in different places.

Tests used:
[1] = test system: SW620 cell line; assay: MTS colorimetric cell viability assay, CHK-ATM combination, SW620; conditions: for pIC50: Homo sapiens
[2] = test system: NCI-H460dnp53 cell line; assay: MTS colorimetric cell viability assay, CHK-ATM combination, NCI-H460dnp53

pIC50 ([1]; SW-620, 96 h, read-out: IC50 of ATM inhibitor, ATM inhibitor + CHK inhibitor Simultaneous) | pIC50 ([1]; SW-620, read-out: IC50 of ATM inhibitor alone) | pIC50 ([1]; SW-620, read-out: IC50 of ATM inhibitor, ATM inhibitor followed by CHK inhibitor) | pIC50 ([1]; SW-620, read-out: IC50 of ATM inhibitor, CHK inhibitor followed by ATM inhibitor) | pIC50 ([2]; 96 h, read-out: IC50 of ATM inhibitor, ATM inhibitor + CHK inhibitor Simultaneous) | pIC50 ([2]; read-out: IC50 of ATM inhibitor alone) | pIC50 ([2]; read-out: IC50 of ATM inhibitor, ATM inhibitor followed by CHK inhibitor) | pIC50 ([2]; read-out: IC50 of ATM inhibitor, CHK inhibitor followed by ATM inhibitor) | Structure (SMILES) | activity of CHK inhibitor as a single agent at the constant concentration used ([1]; SW620, 0.28 uM, single agent, previously determined) | activity of CHK inhibitor as a single agent at the constant concentration used ([2]; NCI-H460dnp53, 0.33 uM, single agent, previously determined)
5.72 | 5.15 | 5.47 | 5.22 | 5.77 | < 4.52 | 5.42 | 5.36 | CC1CN(CC(=O)Nc2ccc3c(c2)Cc2cccc(-c4cc(=O)cc(N5CCOCC5)o4)c2S3)CC(C)O1 (stereo not shown) [ATM inhibitor, 2-[(2,6)-2,6-dimethylmorpholin-4-yl]-N-[5-(6-morpholin-4-yl-4-oxo-4H-pyran-2-yl)-9H-thioxanthen-2-yl]acetamide] | – | –
– | – | – | – | – | – | – | – | NC(=O)Nc1cc(-c2cccc(F)c2)sc1C(=O)N[C@H]1CCCNC1 [CHK inhibitor, 5-(3-Fluoro-phenyl)-3-ureido-thiophene-2-carboxylic acid (S)-piperidin-3-ylamide] | no activity | no activity
